Results from patent EP3372592A1, “SOLID FORMS OF LESINURAD AMINE SALTS” (Zentiva, k.s., priority 2017, dated 2018).

Assays:
[1] = Determining the dissolution rate using the true dissolution method (Sirius inForm, pressed disks); assay type: physicochemical; details: for dissolution rate: true dissolution disks d = 3 mm, 40 ml acetate-phosphate buffer pH 6.8, 100 rpm, UV/Vis; for times more soluble than crystalline form 2 of lesinurad free acid: ratio of dissolution rates measured under identical conditions
Experimental: The dissolution rate was measured using a Sirius inForm dissolution device. Disks for true dissolution with the surface area available for dissolution of 0.071 cm^2 (d = 0.3 cm) were prepared using a Specac press. The pressing time was 2x2 minutes at the pressing pressure of 100 kg. The dissolution was carried out in 40 ml of a solution at pH 6.8 (38 ml of 150mM NaCl + 2 ml of 150mM NaCl, 100mM CH3COONa, 100mM NaH2PO4), at the constant speed of 100 rpm. Samples were drawn at 5-second intervals and the concentration of dissolved lesinurad was determined by means of an integrated UV/Vis spectrophotometric probe in the wavelength range of 230-400 nm. Disks for measuring true dissolution (d = 3 mm) were produced from the prepared solid forms of lesinurad, i.e. free acid form 2 (reference form), tromethamine salt form I and diethylamine salt, and solid form of lesinurad with urea (form I), with the use of a press. The dissolution was carried out in 40 ml of an acetate-phosphate buffer at pH 6,8 (150mM NaCl, 5mM CH3COONa, 5mM NaH2PO4), at the constant stirring speed of 100 rpm. Samples were drawn at 5-second intervals and the concentration of dissolved lesinurad was determined by means of a UV/Vis spectrophotometer.

[2] = Chemical and polymorphic stability test of the crystalline form; assay type: physicochemical
Experimental: The prepared crystalline form I was subjected to tests from the point of view of chemical and polymorphic stability. […] The same results were also obtained after 3 days at 80°C.

Row | Compound | dissolution rate [1] [mg/min/cm^2] | dissolution rate ([1]; listed as crystalline form 2 of lesinurad free acid) [mg/min/cm^2] | times more soluble than crystalline form 2 of lesinurad free acid ([1]; listed as salt with diethylamine) [times] | dissolution rate ([1]; listed as lesinurad with dimethylamine) [mg/min/cm^2] | chemical and polymorphic stability ([2]; after 3 months at 40°C / 75% humidity) | chemical and polymorphic stability ([2]; after 3 days at 80°C) | times more soluble than crystalline form 2 of lesinurad free acid ([1]; listed as solid form of lesinurad with tromethamine) | dissolution rate ([1]; listed as lesinurad with tromethamine) [mg/min/cm^2]
1 | O=C(O)CSc1nnc(Br)n1-c1ccc(C2CC2)c2ccccc12 [lesinurad free acid (form 2), 2-(5-bromo-4-(1-cyclopropylnaphtalen-4-yl)-4H-1,2,4-triazol-3-ylthio)acetic acid, reference compound] | 0.42 | 0.42 | – | – | – | – | – | –
2 | O=C(O)CSc1nnc(Br)n1-c1ccc(C2CC2)c2ccccc12 [lesinurad with diethylamine] | 21.58 | – | ~50 | 21.58 | – | – | – | –
3 | O=C(O)CSc1nnc(Br)n1-c1ccc(C2CC2)c2ccccc12 [lesinurad with tromethamine (form I)] | 7.44 | – | – | – | did not show any signs of chemical degradation or transition to a different polymorphic form | same results | about 17 times | 7.44
